*1 amine or outer side, *2 acyl side, *3 side chain or, on linkers, in order; H or OH if unused. Where a SMILES comes first, the peptide text is derived from it. Bridges are numbered along the chain shown (N, C = ends). [ ]: non-standard residue; d: D form. The star is where a group is joined. Orn(4R-OH,5R-OH) = O=C([C@H](C[C@@H](O)[C@@H](O)N[*:3])N[*:1])[*:2]; Tetradecanoyl(10R,12S-Me2) = CC[C@H](C)C[C@H](C)CCCCCCCCC(=O)*; hTyr(3S-OH,4S-OH) = N[C@H](C(=O)O)[C@H](O)[C@@H](O)c1ccc(O)cc1; Gln(3R-OH) = NC(=O)C[C@@H](O)[C@H](N)C(=O)O; Pro(3S-OH) = O=C(O)[C@H]1NCC[C@@H]1O; Hyp = O=C(O)[C@@H]1C[C@@H](O)CN1
target: T1, Ceramide glucosyltransferase (Homo sapiens) (UniProt Q16739); assay: Inhibition of glucosylceramide synthase (unknown origin) at 5 uM
T1 sequence (whole entry): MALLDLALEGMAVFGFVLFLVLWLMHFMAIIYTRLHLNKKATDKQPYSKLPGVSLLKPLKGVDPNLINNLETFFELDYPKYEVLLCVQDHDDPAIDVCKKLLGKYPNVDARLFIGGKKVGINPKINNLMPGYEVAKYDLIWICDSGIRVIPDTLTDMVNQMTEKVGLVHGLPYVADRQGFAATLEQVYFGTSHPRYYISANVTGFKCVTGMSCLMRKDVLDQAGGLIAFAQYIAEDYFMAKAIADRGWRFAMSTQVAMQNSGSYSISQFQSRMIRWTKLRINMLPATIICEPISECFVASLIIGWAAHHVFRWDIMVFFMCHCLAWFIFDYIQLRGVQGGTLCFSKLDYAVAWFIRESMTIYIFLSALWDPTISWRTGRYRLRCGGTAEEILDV

In order of falling inhibition:
1. CCCCCCCCCCCCC/C=C/[C@@H](O)[C@@H](CN1CCCC1)NC(=O)CCCCCCCCCCCCCCC  87%
2. CCCCCCCCCCCCC/C=C/[C@@H](O)[C@@H](CN1CCOCC1)NC(=O)CCCCCCCCCCCCCCC  73%
3. CCCCCCCCCCCCCCCC(=O)N[C@H](CN1CCCC1)[C@H](O)c1ccccc1  50%
4. CCCCCCCCCCCCCCCC(=O)N[C@H](CN1CCOCC1)[C@H](O)c1ccccc1  32%
5. CCCCCCCCCC(=O)N[C@H](CN1CCOCC1)[C@H](O)c1ccccc1  16%
6. CCCCCCCCCCCCC/C=C/[C@H](O)[C@@H](CN1CCOCC1)NC(=O)CCCCCCCCCCCCCCC  5%
7. CCCCCCCCCCCCC/C=C/[C@@H](O)[C@H](CN1CCOCC1)NC(=O)CCCCCCCCCCCCCCC  5%
8. CCCCCCCCCCCCC/C=C/[C@H](O)[C@H](CN1CCOCC1)NC(=O)CCCCCCCCCCCCCCC  5%

target: T2, Phospho-N-acetylmuramoyl-pentapeptide-transferase/UDP-N-acetylglucosamine--N-acetylmuramyl-(pentapeptide) pyrophosphoryl-undecaprenol N-acetylglucosamine transf (Escherichia coli K-12, UniProt P0A6W3+P17443); assay: Inhibition of Escherichia coli MraY/MurG; format: protein assay
T2 sequence (P0A6W3 whole entry): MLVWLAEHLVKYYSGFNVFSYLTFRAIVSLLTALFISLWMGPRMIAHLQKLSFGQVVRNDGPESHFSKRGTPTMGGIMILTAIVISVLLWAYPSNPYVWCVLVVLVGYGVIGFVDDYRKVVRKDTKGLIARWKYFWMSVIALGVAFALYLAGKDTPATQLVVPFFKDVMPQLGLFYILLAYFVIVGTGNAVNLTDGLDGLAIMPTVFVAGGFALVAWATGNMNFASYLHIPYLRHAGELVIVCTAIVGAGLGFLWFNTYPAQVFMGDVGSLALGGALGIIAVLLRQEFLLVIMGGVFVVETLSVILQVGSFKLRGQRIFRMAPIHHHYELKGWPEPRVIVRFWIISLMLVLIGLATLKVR
T2 sequence (P17443 whole entry): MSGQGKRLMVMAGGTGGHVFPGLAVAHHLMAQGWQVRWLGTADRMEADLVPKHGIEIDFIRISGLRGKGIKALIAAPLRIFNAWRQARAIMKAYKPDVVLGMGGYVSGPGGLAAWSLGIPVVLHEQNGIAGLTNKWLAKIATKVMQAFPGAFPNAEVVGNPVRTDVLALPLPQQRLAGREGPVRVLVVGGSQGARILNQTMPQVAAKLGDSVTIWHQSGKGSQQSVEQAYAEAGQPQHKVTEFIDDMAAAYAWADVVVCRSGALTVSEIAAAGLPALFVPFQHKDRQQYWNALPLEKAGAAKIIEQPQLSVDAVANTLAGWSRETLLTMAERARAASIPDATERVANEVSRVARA

In order of rising IC50:
1. CCOC(=O)c1ccccc1-c1c2cc(Br)c(=O)c(Br)c-2oc2c(Br)c(O)c(Br)cc12  18.4 µM
2. COC1=C(O)c2c(O)cc(C)c3c(O)cc(O)c(c23)C1=O  54 µM
3. O=C1OC2(c3cc(I)c(O)cc3Oc3cc(O)c(I)cc32)c2ccccc21  166 µM

target: T3, UDP-N-acetylglucosamine--N-acetylmuramyl-(pentapeptide) pyrophosphoryl-undecaprenol N-acetylglucosamine transferase (Escherichia coli (strain K12)) (UniProt P17443); assay: Inhibition of Escherichia coli MurG at 2.5 microg/ml
T3 sequence (whole entry): T2 sequence (P17443 whole entry)

In order of rising inhibition:
1. CC1=NN(c2ccc(Cl)c(C(=O)O)c2)C(=O)/C1=C\c1ccc(-c2ccccc2C(=O)O)o1  48%
2. COc1cc(/C=C2\C(=O)N(c3ccc(Cl)c(C(=O)O)c3)N=C2C)cc([N+](=O)[O-])c1O  54%
3. NS(=O)(=O)c1ccc(-c2ccc(/C=C3\C(=O)N(c4cccc(S(N)(=O)=O)c4)N=C3C(F)(F)F)o2)cc1  66%
4. COc1c(N/C=C2\C(=O)N(c3ccccc3C)N=C2C)cc([N+](=O)[O-])cc1[N+](=O)[O-]  66%
5. O=C1N/C(=N/c2ccccc2)S/C1=C/c1cc(Br)cc(Cl)c1O  71%
6. O=C(CN1C(=O)S/C(=C/c2ccc(Cl)cc2)C1=O)Nc1cc([N+](=O)[O-])ccc1O  72%
7. COc1cc(/C=C2\C(=O)NC(=O)N(c3ccc(C)cc3)C2=O)cc([N+](=O)[O-])c1O  72%
8. Cc1cc(/C=C2\C(=O)NC(=S)N(c3ccc(Cl)cc3)C2=O)c(C)n1-c1cc(C(=O)O)cc(C(=O)O)c1  88%

test system: not listed separately; assay: Inhibition of MraY (unknown origin)

In order of rising IC50:
1. NC[C@H]1O[C@@H](O[C@H](c2cn(CCCOc3ccc(C(=O)c4ccccc4)cc3)nn2)[C@H]2O[C@@H](n3ccc(=O)[nH]c3=O)[C@H](O)[C@@H]2O)[C@H](O)[C@@H]1O  100 µM
2. NC[C@H]1O[C@@H](O[C@H](c2cn(CCCCCCCCCCOc3ccc(C(=O)c4ccccc4)cc3)nn2)[C@H]2O[C@@H](n3ccc(=O)[nH]c3=O)[C@H](O)[C@@H]2O)[C@H](O)[C@@H]1O  125 µM

test system: not listed separately; assay: Inhibition of candida albicans beta-(1,3)-glucan synthase assessed as decrease in transfer of radiolabelled glucose from UDP-[3H]-glucose onto acceptor

In order of falling IC50:
1. CC[C@H](C)C[C@H](C)CCCCCCCCC(=O)N[C@H]1C[C@@H](O)[C@@H](O)NC(=O)[C@@H]2[C@@H](O)CCN2C(=O)[C@H]([C@H](O)CC(N)=O)NC(=O)[C@H]([C@H](O)[C@@H](O)c2ccc(O)cc2)NC(=O)[C@@H]2C[C@@H](O)CN2C(=O)[C@H]([C@@H](C)O)NC1=O ({Tetradecanoyl(10R,12S-Me2)}-[Orn(4R-OH,5R-OH)]T[Hyp][hTyr(3S-OH,4S-OH)][Gln(3R-OH)][Pro(3S-OH)]; lactam 1-C)  0.07 µM
2. CC[C@H](C)C[C@H](C)CCCCCCCCC(=O)N[C@H]1C[C@@H](O)[C@@H](OCCN)NC(=O)[C@@H]2[C@@H](O)CCN2C(=O)[C@H]([C@H](O)CCN)NC(=O)[C@H]([C@H](O)[C@@H](O)c2ccc(O)cc2)NC(=O)[C@@H]2C[C@@H](O)CN2C(=O)[C@H]([C@@H](C)O)NC1=O  0.001 µM

target: T4, CMP-N-acetylneuraminate-beta-galactosamide-alpha-2,3-sialyltransferase 1 (Homo sapiens, UniProt Q11201); assay: Inhibition of ST3Gal 1 (unknown origin)
T4 sequence (Q11201 whole entry): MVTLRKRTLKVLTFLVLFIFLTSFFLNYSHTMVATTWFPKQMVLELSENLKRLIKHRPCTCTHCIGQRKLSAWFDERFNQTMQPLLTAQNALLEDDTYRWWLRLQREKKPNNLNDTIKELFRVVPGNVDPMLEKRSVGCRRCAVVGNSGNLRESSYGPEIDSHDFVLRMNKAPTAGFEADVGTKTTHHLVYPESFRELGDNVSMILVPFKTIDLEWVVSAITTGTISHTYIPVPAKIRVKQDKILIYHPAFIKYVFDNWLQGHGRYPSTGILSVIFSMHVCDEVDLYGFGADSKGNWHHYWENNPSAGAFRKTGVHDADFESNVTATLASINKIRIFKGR

In order of falling IC50:
1. C[C@H](CCC(=O)O)[C@H]1CC[C@H]2[C@@H]3CC[C@@H]4C[C@H](O)CC[C@]4(C)[C@H]3CC[C@]12C [LITHOCHOLIC ACID]  21 µM
2. C[C@H](CCCn1cc(CCCC(=O)O)nn1)[C@H]1CC[C@H]2[C@@H]3CC[C@@H]4C[C@H](O)CC[C@]4(C)[C@H]3CC[C@]12C  5 µM

For `C[C@H](CCCn1cc(CCCC(=O)O)nn1)[C@H]1CC[C@H]2[C@@H]3CC[C@@H]4C[C@H](O)CC[C@]4(C)[C@H]3CC[C@]12C`, the Ki was 2.2 µM.

Source: ChEMBL document CHEMBL3596159, “Beyond substrate analogues: new inhibitor chemotypes for glycosyltransferases” (Medchemcomm, 2014)
